According to publication PMC8269107, “Lipidation of Temporin-1CEb Derivatives as a Tool for Activity Improvement, Pros and Cons of the Approach” (International Journal of Molecular Sciences, 2021):
Converted amounts (≈) assume the structure as drawn. Where no end group is shown, it is not given here.

Key:
S. aureus PCM 2054 = test: MIC, broth microdilution; assay type: cell-based, Staphylococcus aureus; conditions: S. aureus PCM 2054, standard Mueller-Hinton broth, 24 h
Source text: (§1) Escherichia coli (PCM 2057 = ATCC 25922), Staphylococcus aureus (PCM 2054 = ATCC 25923), Staphylococcus epidermidis (PCM 2118 = ATCC 14990), Bacillus subtilis (PCM 2224 = ATCC 9799), Bacillus cereus (PCM 482 = ATCC 10702) and Pseudomonas aeruginosa (PCM 499 = ATCC 10145) were obtained from the Polish Collection of Microorganisms. Fungi strains Candida albicans (CCM 8186 = CNTC 49/64), Candida glabrata (CCM 8270 = ATCC 90030), Candida parapsilosis (CCM 8260 = ATCC 22019) and Candida krusei (CCM 8271 = ATCC 6258) were acquired from the Czech Collection of Microorganisms. S. aureus USA300 (wild type strain), the reference strain of Klebsiella pneumoniae (ATCC 13883) and clinical isolates of Pseudomonas aeruginosa (PA1, PA2) collected from nonrelated patients admitted to the Stefan Zeromski Specialist Municipal Hospital in Krakow (Poland) were kindly provided by the research group of the Department of Microbiology, Faculty of Biochemistry, Biophysics and Biotechnology, Jagiellonian University, Krakow, Poland.
(§2) Luria-Bertani broth (LB) and Sabouraud Dextrose broth (SB) (Biocorp, Poland) were used for cultivation of bacteria and fungi strains, respectively. The antimicrobial activity of the peptides were analyzed through determination of MIC (minimal inhibitory concentration) parameters according to Clinical and Laboratory Standards (CLSI) guidelines developed for aerobic bacteria and yeasts, respectively. Mueller-Hinton broth (MHB) was used as the working medium for all bacterial strains, while in the case of fungi, RPMI-1640 (with L-glutamine, without sodium bicarbonate) growth medium buffered with MOPS (morpholinepropanesulfonic acid) and supplemented with 2% glucose was used. Inoculum was prepared from freshly grown cultures of microorganisms at their exponential phase of growth. […] Plates were then incubated for 24 h at 37 °C in the case of bacteria and at 35 °C in the case of fungi. After that time, absorbance was read at 590 nm with a Perkin Elmer plate reader. Cultures without peptide were treated as positive control, while uninoculated media were defined as negative control. All measurements were run at least in triplicate.

primary fibroblasts = test: Cytotoxicity, MTT assay; assay type: cell-based, human; conditions: 24 h
Experimental: (§3) Human dermal fibroblasts were obtained as previously reported from biopsies of healthy human skin of three donors undergoing a surgery. All procedures were approved by the Ethics Committee of Medicinal University of Gdansk (NKEBN/483/2011 and NKBBN/745/2019-2020). Immortalized human HaCaT keratinocytes (DKFZ Heidelberg, Germany) were obtained commercially.
(§4) Both types of cell lines were grown in Dulbecco′s Modified Eagle′s Medium (DMEM) (Sigma-Aldrich, Germany), containing […] of glucose, […] of L- glutamine, sodium pyruvate and sodium bicarbonate. Additionally, the medium was supplemented with 10% FCS (fetal calf serum, Sigma-Aldrich, Germany), 100 U/mL of penicillin and 100 μg/mL of streptomycin (Sigma-Aldrich, Germany). The cells were grown in standard culture dishes (BD, USA) in a humidified atmosphere with 5% CO2 at […], and the medium was changed every 2 days.
(§5) The fibroblasts and keratinocytes were seeded at density of 5500 cells per well into 96-well plates suspended in a medium supplemented with 10% FCS. After 24 h from seeding, the media were exchanged with serum- and antibiotic-free DMEM and tested peptides, dissolved in sterile water, which were added, yielding a final concentration ranging from 1 to 50 μg/mL. The cells were then incubated for the next 24 h. At the end of the experiment, the cells were treated with 20 μL of MTT (5 mg/mL in PBS). After 3 h of incubation in the presence of MTT dye, the DMEM medium was discarded and replaced with 6 mM HCl in isopropanol. When the purple crystals of formazan were fully solubilized, absorbance at 570 nm was read.

keratinocytes (HaCaT) = test: Cytotoxicity, MTT assay; assay type: cell-based, human; conditions: 24 h
Experimental: as §3, §4, §5

C.albicans CCM 8186 = test: MIC, broth microdilution; assay type: cell-based, Candida albicans; conditions: C.albicans CCM 8186, 24 h
Source text: as §1, §2

C.parapsilosis CCM 8260 = test: MIC, broth microdilution; assay type: cell-based, Candida parapsilosis; conditions: C.parapsilosis CCM 8260, 24 h
Source text: as §1, §2

E. coli PCM 2057 = test: MIC, broth microdilution; assay type: cell-based, Escherichia coli; conditions: E. coli PCM 2057, 24 h
Source text: as §1, §2

P. aeruginosa PCM 499 = test: MIC, broth microdilution; assay type: cell-based, Pseudomonas aeruginosa; conditions: P. aeruginosa PCM 499, 24 h
Source text: as §1, §2

C.glabrata CCM 8270 = test: MIC, broth microdilution; assay type: cell-based, Candida glabrata; conditions: C.glabrata CCM 8270, 24 h
Source text: as §1, §2

B. cereus PCM 482 = test: MIC, broth microdilution; assay type: cell-based, Bacillus cereus; conditions: B. cereus PCM 482, 24 h
Source text: as §1, §2

S. epidermidis PCM 2118 = test: MIC, broth microdilution; assay type: cell-based, Staphylococcus epidermidis; conditions: S. epidermidis PCM 2118, 24 h
Source text: as §1, §2

C.krusei CCM 8271 = test: MIC, broth microdilution; assay type: cell-based, Candida krusei; conditions: C.krusei CCM 8271, 24 h
Source text: as §1, §2

Gelation in water = assay type: physicochemical; conditions: for gel formation in water: within the range of analyzed concentrations
B. subtilis PCM 2224 = test: MIC, broth microdilution; assay type: cell-based, Bacillus subtilis; conditions: B. subtilis PCM 2224, 24 h
Source text: as §1, §2

K.pneumoniae ATCC 13883 = assay type: cell-based, Klebsiella pneumoniae; conditions: ATCC 13883, 24 h
Source text: as §1, §2

P. aeruginosa PA1 = assay type: cell-based, Pseudomonas aeruginosa; conditions: PA1, 24 h
Source text: as §1, §2

P. aeruginosa PA2 = assay type: cell-based, Pseudomonas aeruginosa; conditions: PA2, 24 h
Source text: as §1, §2

CCCCC(=O)NCCC(=O)N[C@@H](Cc1c[nH]cn1)C(=O)O [Compound C5-CAR, CH3(CH2)3C(O)-βAH]
MIC100 (S. aureus PCM 2054): Non-inhibitory
IC50 (primary fibroblasts): >50 µg/mL
IC50 (keratinocytes (HaCaT)): >50 µg/mL
MIC100 (C.albicans CCM 8186): Non-inhibitory
MIC100 (C.parapsilosis CCM 8260): Non-inhibitory
MIC100 (E. coli PCM 2057): Non-inhibitory
MIC100 (P. aeruginosa PCM 499): Non-inhibitory
MIC100 (C.glabrata CCM 8270): Non-inhibitory
MIC100 (B. cereus PCM 482): Non-inhibitory
MIC100 (S. epidermidis PCM 2118): Non-inhibitory
MIC100 (C.krusei CCM 8271): Non-inhibitory
gelation in water (Gelation in water; concentrations of up to 5 mg/mL): gelation in water was not observed
MIC100 (B. subtilis PCM 2224): Non-inhibitory

CCCCCCCCCCCCCCCC(=O)NCCC(=O)N[C@@H](Cc1c[nH]cn1)C(=O)O [Compound C16-CAR, CH3(CH2)14C(O)-βAH]
MIC100 (S. aureus PCM 2054): Non-inhibitory
IC50 (primary fibroblasts): 12.5 µg/mL (≈ 26.9 µM)
IC50 (keratinocytes (HaCaT)): 25 µg/mL (≈ 53.8 µM)
MIC100 (C.albicans CCM 8186): Non-inhibitory
MIC100 (C.parapsilosis CCM 8260): Non-inhibitory
MIC100 (E. coli PCM 2057): Non-inhibitory
MIC100 (P. aeruginosa PCM 499): Non-inhibitory
MIC100 (C.glabrata CCM 8270): Non-inhibitory
MIC100 (B. cereus PCM 482): Non-inhibitory
MIC100 (S. epidermidis PCM 2118): Non-inhibitory
MIC100 (C.krusei CCM 8271): Non-inhibitory
gel formation in water (Gelation in water): formed self-standing gels in water
MIC100 (B. subtilis PCM 2224): Non-inhibitory

IKKILSKIKKLL-NH2 (C-terminus assumed) [DK5, reference compound]
MIC100 (K.pneumoniae ATCC 13883): >200 µg/mL
IC50 (primary fibroblasts): >50 µg/mL
IC50 (keratinocytes (HaCaT)): >50 µg/mL
MIC100 (P. aeruginosa PA1): 100 µg/mL
MIC100 (P. aeruginosa PA2): 100 µg/mL

CCCCCCCCCCCC(=O)NCCC(=O)N[C@@H](Cc1c[nH]cn1)C(=O)O [Compound C12-CAR, CH3(CH2)10C(O)-βAH]
MIC100 (S. aureus PCM 2054): Non-inhibitory
IC50 (primary fibroblasts): >50 µg/mL
IC50 (keratinocytes (HaCaT)): >50 µg/mL
MIC100 (C.albicans CCM 8186): Non-inhibitory
MIC100 (C.parapsilosis CCM 8260): Non-inhibitory
MIC100 (E. coli PCM 2057): Non-inhibitory
MIC100 (P. aeruginosa PCM 499): Non-inhibitory
MIC100 (C.glabrata CCM 8270): Non-inhibitory
MIC100 (B. cereus PCM 482): Non-inhibitory
MIC100 (S. epidermidis PCM 2118): Non-inhibitory
MIC100 (C.krusei CCM 8271): Non-inhibitory
gelation of water solution (Gelation in water; concentration of 1 mg/mL): underwent gelation
gel formation in water (Gelation in water): formed self-standing gels in water
MIC100 (B. subtilis PCM 2224): Non-inhibitory
